target: T1, chicken gizzard smooth muscle myosin subfragment-1 chemically crosslinked to cardiac or skeletal actin (Gallus gallus, UniProt P10587); assay: Smooth muscle myosin ATPase dose response assay (pyruvate kinase/horseradish peroxidase/pyruvate oxidase-coupled, amplex red fluorescence); type: biochemical; details: read-out: IC50 Arithmetic Mean
T1 construct: chicken gizzard smooth muscle myosin subfragment-1; from tissue; host or cells: chicken gizzard
How it was run: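 Amplex red fluorescence (480 nm excitation, 615 nm emission) tracked ATP hydrolysis by smooth muscle S1 crosslinked to actin with carbodiimide/N-hydroxysuccinimide. Reactions contained 0.15 mM ATP and 100 mM KCl at pH 7.00, 22° C. IC50 came from a four-parameter logistic fit.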

T1 sequence (P02607 2-151): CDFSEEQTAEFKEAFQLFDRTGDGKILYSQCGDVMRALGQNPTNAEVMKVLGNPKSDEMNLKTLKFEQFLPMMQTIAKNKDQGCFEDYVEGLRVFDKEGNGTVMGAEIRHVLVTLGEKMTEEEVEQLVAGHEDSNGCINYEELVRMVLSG
T1 sequence (P10587 84-789): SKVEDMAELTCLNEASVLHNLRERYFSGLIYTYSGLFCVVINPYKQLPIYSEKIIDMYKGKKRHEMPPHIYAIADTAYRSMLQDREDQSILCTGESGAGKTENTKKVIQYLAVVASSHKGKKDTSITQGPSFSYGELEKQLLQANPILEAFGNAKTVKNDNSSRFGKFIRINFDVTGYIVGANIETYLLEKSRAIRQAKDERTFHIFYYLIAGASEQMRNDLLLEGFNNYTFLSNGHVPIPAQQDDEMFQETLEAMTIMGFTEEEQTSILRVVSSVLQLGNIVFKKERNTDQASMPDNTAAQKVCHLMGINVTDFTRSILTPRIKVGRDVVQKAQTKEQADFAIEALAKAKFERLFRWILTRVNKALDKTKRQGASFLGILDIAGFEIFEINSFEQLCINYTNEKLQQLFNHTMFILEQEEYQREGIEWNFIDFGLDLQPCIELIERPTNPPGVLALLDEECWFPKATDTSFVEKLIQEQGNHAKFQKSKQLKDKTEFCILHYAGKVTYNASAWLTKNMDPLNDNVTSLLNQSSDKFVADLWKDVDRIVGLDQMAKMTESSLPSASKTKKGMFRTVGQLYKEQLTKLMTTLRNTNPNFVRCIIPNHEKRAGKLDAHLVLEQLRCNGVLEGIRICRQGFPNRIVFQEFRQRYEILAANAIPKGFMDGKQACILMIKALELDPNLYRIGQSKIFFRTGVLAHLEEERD

In order of falling IC50:
1. CC(=O)N1CCC(CNC(=O)c2ccc(-c3ccccc3)nc2NCCc2ccccn2)CC1 [N-[(1-acetyl(4-piperidyl))methyl]{6-phenyl-2-[(2-(2-pyridyl)ethyl)amino](3-pyridyl)}carboxamide]  96700 nM
2. O=C(NCc1ccc(-c2ccccc2)nc1NCCc1cccc(F)c1)Nc1cccnc1 [N-[(2-{[2-(3-fluorophenyl)ethyl]amino}-6-phenyl(3-pyridyl))methyl](3-pyridylamino)carboxamide]  71000 nM
3. CC(=O)N1CCCC(CNC(=O)c2ccc(-c3ccccc3)nc2NCCc2ccccn2)C1 (stereo not drawn) [N-[(1-acetyl(3-piperidyl))methyl]{6-phenyl-2-[(2-(2-pyridyl)ethyl)amino](3-pyridyl)}carboxamide]  48400 nM
4. CC(C)(C)OC(=O)NCCCN1C(=O)CCCCC1CNC(=O)c1ccc(-c2ccccc2C#N)nc1NCCc1cccc(F)c1 (stereo not drawn) [N-[(1-{3-[(tert-butoxy)carbonylamino]propyl}-7-oxoazaperhydroepin-2-yl)methyl](6-(2-cyanophenyl)-2-{[2-(3-fluorophenyl)ethyl]amino}(3-pyridyl))carboxamide]  17200 nM
5. CC(C)(C)OC(=O)NCc1ncccc1CNC(=O)c1ccc(-c2cnn(CCO)c2)nc1NCCc1cccc(F)c1 [N-[(2-{[(tert-butoxy)carbonylamino]methyl}(3-pyridyl))methyl](2-{[2-(3-fluorophenyl)ethyl]amino}-6-[1-(2-hydroxyethyl)pyrazol-4-yl](3-pyridyl))carboxamide]  15000 nM
6. CN(C)CCCNC(=O)CNC(=O)c1ccc(-c2ccccc2C#N)nc1NCCc1cccc(F)c1 [N-[3-(dimethylamino)propyl]-2-[(6-(2-cyanophenyl)-2-{[2-(3-fluorophenyl)ethyl]amino}(3-pyridyl))carbonylamino]acetamide]  12200 nM
7. CC(C)(C)OC(=O)NCCn1ccc(CNC(=O)c2ccc(-c3cc[nH]n3)nc2NCCc2cccc(F)c2)n1 [N-[(1-{2-[(tert-butoxy)carbonylamino]ethyl}pyrazol-3-yl)methyl](2-{[2-(3-fluorophenyl)ethyl]amino}-6-pyrazol-3-yl(3-pyridyl))carboxamide]  12000 nM
8. Cc1cc(C(=O)NC[C@H]2CCC(=O)N2CCCNC(=O)OC(C)(C)C)c(NCCc2cccc(F)c2)nc1-c1ccccc1C#N [N-[3-((5R)-5-{[(6-(2-cyanophenyl)-2-{[2-(3-fluorophenyl)ethyl]amino}-5-methyl(3-pyridyl))carbonylamino]methyl}-2-oxopyrrolidinyl)propyl](tert-butoxy)carboxamide]  5370 nM
9. CC(C)(C)OC(=O)NCCN1CCCC1CNC(=O)c1ccc(-c2ccccc2C#N)nc1NCCc1cccc(F)c1 (stereo not drawn) [N-[(1-{2-[(tert-butoxy)carbonylamino]ethyl}pyrrolidin-2-yl)methyl](6-(2-cyanophenyl)-2-{[2-(3-fluorophenyl)ethyl]amino}(3-pyridyl))carboxamide]  4830 nM
10. C[C@@H](NC(=O)OC(C)(C)C)C(=O)N1CCC[C@@H]1CNC(=O)c1ccc(-c2ccccc2C#N)nc1NCCc1cccc(F)c1 [N-[(1R)-2-((2R)-2-{[(6-(2-cyanophenyl)-2-{[2-(3-fluorophenyl)ethyl]amino}(3-pyridyl))carbonylamino]methyl}pyrrolidinyl)-1-methyl-2-oxoethyl](tert-butoxy)carboxamide]  3940 nM
11. Cn1ccc(CNC(=O)c2ccc(-c3ccccc3)nc2NCCc2ccccn2)n1 [N-[(1-methylpyrazol-3-yl)methyl]{6-phenyl-2-[(2-(2-pyridyl)ethyl)amino](3-pyridyl)}carboxamide]  2730 nM
12. CC(C)(C)OC(=O)NCCn1ccc(CNC(=O)c2ccc(-c3ccccc3C#N)nc2NCCc2cccc(F)c2)n1 [N-[(1-{2-[(tert-butoxy)carbonylamino]ethyl}pyrazol-3-yl)methyl](6-(2-cyanophenyl)-2-{[2-(3-fluorophenyl)ethyl]amino}(3-pyridyl))carboxamide]  2730 nM
13. Cn1cc(-c2nc(NCCc3cccc(F)c3)c(C(=O)NCC3COC(C)(C)OC3)cc2F)cn1 [N-[(2,2-dimethyl(1,3-dioxan-5-yl))methyl](5-fluoro-2-{[2-(3-fluorophenyl)ethyl]amino}-6-(1-methylpyrazol-4-yl)(3-pyridyl))carboxamide]  2230 nM
14. CC(C)(C)OC(=O)NCCn1nccc1CNC(=O)c1ccc(-c2ccccc2C#N)nc1NCCc1cccc(F)c1 [N-[(1-{2-[(tert-butoxy)carbonylamino]ethyl}pyrazol-5-yl)methyl](6-(2-cyanophenyl)-2-{[2-(3-fluorophenyl)ethyl]amino}(3-pyridyl))carboxamide]  2200 nM
15. CC(C)(C)OC(=O)NCCCN1CCCC1CNC(=O)c1ccc(-c2ccccc2C#N)nc1NCCc1cccc(F)c1 (stereo not drawn) [N-[(1-{3-[(tert-butoxy)carbonylamino]propyl}pyrrolidin-2-yl)methyl](6-(2-cyanophenyl)-2-{[2-(3-fluorophenyl)ethyl]amino}(3-pyridyl))carboxamide]  2080 nM
16. CC(=O)N1CCC(CNC(=O)c2ccc(-c3ccccc3C#N)nc2NCCc2cccc(F)c2)CC1 [N-[(1-acetyl(4-piperidyl))methyl](6-(2-cyanophenyl)-2-{[2-(3-fluorophenyl)ethyl]amino}(3-pyridyl))carboxamide]  1700 nM
17. Cn1nccc1CNC(=O)c1ccc(-c2ccccc2)nc1NCCc1ccccn1 [N-[(1-methylpyrazol-5-yl)methyl]{6-phenyl-2-[(2-(2-pyridyl)ethyl)amino](3-pyridyl)}carboxamide]  1300 nM
18. Cn1cc(-c2nc(NCCc3cccc(F)c3)c(C(=O)NC[C@H]3CCC(=O)N3CCCNC(=O)OC(C)(C)C)cc2C#N)cn1 [N-[3-((5R)-5-{[(5-cyano-2-{[2-(3-fluorophenyl)ethyl]amino}-6-(1-methylpyrazol-4-yl)(3-pyridyl))carbonylamino]methyl}-2-oxopyrrolidinyl)propyl](tert-butoxy)carboxamide]  1150 nM
19. Cc1cc(C(=O)NCc2cccnc2CNC(=O)OC(C)(C)C)c(NCCc2cccc(F)c2)nc1-c1cnn(C)c1 [N-[(2-{[(tert-butoxy)carbonylamino]methyl}(3-pyridyl))methyl](2-{[2-(3-fluorophenyl)ethyl]amino}-5-methyl-6-(1-methylpyrazol-4-yl)(3-pyridyl))carboxamide]  1120 nM
20. CC1(C)OCC(CNC(=O)c2ccc(-c3ccccc3C#N)nc2NCCc2cccc(F)c2)CO1 [N-[(2,2-dimethyl(1,3-dioxan-5-yl))methyl](6-(2-cyanophenyl)-2-{[2-(3-fluorophenyl)ethyl]amino}(3-pyridyl))carboxamide]  1020 nM
21. CC1(C)OCC(CNC(=O)c2cc(F)c(-c3cn[nH]c3)nc2NCCc2cccc(F)c2)CO1 [N-[(2,2-dimethyl(1,3-dioxan-5-yl))methyl](5-fluoro-2-{[2-(3-fluorophenyl)ethyl]amino}-6-pyrazol-4-yl(3-pyridyl))carboxamide]  927 nM
22. CC(C)(C)OC(=O)NCCCN1C(=O)CCCC1CNC(=O)c1ccc(-c2ccccc2C#N)nc1NCCc1cccc(F)c1 (stereo not drawn) [N-[(1-{3-[(tert-butoxy)carbonylamino]propyl}-6-oxo(2-piperidyl))methyl](6-(2-cyanophenyl)-2-{[2-(3-fluorophenyl)ethyl]amino}(3-pyridyl))carboxamide]  877 nM
23. Cn1cc(-c2ccc(C(=O)NCC3CCN(CCCNC(=O)OC(C)(C)C)C3=O)c(NCCc3cccc(F)c3)n2)cn1 (stereo not drawn) [N-[(1-{3-[(tert-butoxy)carbonylamino]propyl}-2-oxopyrrolidin-3-yl)methyl](2-{[2-(3-fluorophenyl)ethyl]amino}-6-(1-methylpyrazol-4-yl)(3-pyridyl))carboxamide]  699 nM
24. CC(C)(C)OC(=O)NCCCN1CCC(CNC(=O)c2ccc(-c3cn[nH]c3)nc2NCCc2cccc(F)c2)C1=O (stereo not drawn) [N-[(1-{3-[(tert-butoxy)carbonylamino]propyl}-2-oxopyrrolidin-3-yl)methyl](2-{[2-(3-fluorophenyl)ethyl]amino}-6-pyrazol-4-yl(3-pyridyl))carboxamide]  589 nM
25. CC(C)(C)OC(=O)NCCc1ncccc1CNC(=O)c1ccc(-c2ccccc2C#N)nc1NCCc1cccc(F)c1 [N-[(2-{2-[(tert-butoxy)carbonylamino]ethyl}(3-pyridyl))methyl](6-(2-cyanophenyl)-2-{[2-(3-fluorophenyl)ethyl]amino}(3-pyridyl))carboxamide]  470 nM
26. CC(C)(C)OC(=O)N[C@H](CO)C(=O)N1CC[C@@H]1CNC(=O)c1ccc(-c2ccccc2C#N)nc1NCCc1cccc(F)c1 [N-[(1R)-2-((2R)-2-{[(6-(2-cyanophenyl)-2-{[2-(3-fluorophenyl)ethyl]amino}(3-pyridyl))carbonylamino]methyl}azetidinyl)-1-(hydroxymethyl)-2-oxoethyl](tert-butoxy)carboxamide]  439 nM
27. CC(=O)N1CCC(CNC(=O)c2ccc(-c3ccccc3C#N)nc2NCCc2cccc(F)c2)C1 (stereo not drawn) [N-[(1-acetylpyrrolidin-3-yl)methyl](6-(2-cyanophenyl)-2-{[2-(3-fluorophenyl)ethyl]amino}(3-pyridyl))carboxamide]  334 nM
28. CC(C)(C)OC(=O)NCCCN1CCC(CNC(=O)c2ccc(-c3ccccc3C#N)nc2NCCc2cccc(F)c2)C1=O (stereo not drawn) [N-[(1-{3-[(tert-butoxy)carbonylamino]propyl}-2-oxopyrrolidin-3-yl)methyl](6-(2-cyanophenyl)-2-{[2-(3-fluorophenyl)ethyl]amino}(3-pyridyl))carboxamide]  104 nM
29. N#Cc1ccccc1-c1ccc(C(=O)NCc2cccnc2Cl)c(NCCc2cccc(F)c2)n1 [N-[(2-chloro(3-pyridyl))methyl](6-(2-cyanophenyl)-2-{[2-(3-fluorophenyl)ethyl]amino}(3-pyridyl))carboxamide]  72 nM
30. N#Cc1ccccc1-c1ccc(C(=O)NCc2cccnc2N)c(NCCc2cccc(F)c2)n1 [N-[(2-amino(3-pyridyl))methyl](6-(2-cyanophenyl)-2-{[2-(3-fluorophenyl)ethyl]amino}(3-pyridyl))carboxamide]  22 nM

From patent publication US7932270B2 (Cytokinetics, Inc., priority 2006, dated 2011)
